Assay results published in patent US10035777B2, “Heterocyclic kinase inhibitors” (priority 2014, dated 2018).

biological target: GST-Xa-hAAK1 (Homo sapiens (Human), UniProt Q2M2I8); assay: biochemical; conditions: not given
Procedure: The assays were performed in U-bottom 384-well plates. […] The reactions were initiated by the combination of bacterially expressed, GST-Xa-hAAK1 with substrates and test compounds. The reactions were incubated at room temperature for 3 hours and terminated by adding 60 μl of 35 mM EDTA buffer to each sample. The reactions were analyzed on the Caliper LabChip 3000 (Caliper, Hopkinton, Mass.) by electrophoretic separation of the fluorescent substrate and phosphorylated product. […] Compounds were dissolved at 10 mM in dimethylsulfoxide (DMSO) and evaluated at eleven concentrations. IC50 values were derived by non-linear regression analysis.

GST-Xa-hAAK1, sequence (Q2M2I8 whole entry): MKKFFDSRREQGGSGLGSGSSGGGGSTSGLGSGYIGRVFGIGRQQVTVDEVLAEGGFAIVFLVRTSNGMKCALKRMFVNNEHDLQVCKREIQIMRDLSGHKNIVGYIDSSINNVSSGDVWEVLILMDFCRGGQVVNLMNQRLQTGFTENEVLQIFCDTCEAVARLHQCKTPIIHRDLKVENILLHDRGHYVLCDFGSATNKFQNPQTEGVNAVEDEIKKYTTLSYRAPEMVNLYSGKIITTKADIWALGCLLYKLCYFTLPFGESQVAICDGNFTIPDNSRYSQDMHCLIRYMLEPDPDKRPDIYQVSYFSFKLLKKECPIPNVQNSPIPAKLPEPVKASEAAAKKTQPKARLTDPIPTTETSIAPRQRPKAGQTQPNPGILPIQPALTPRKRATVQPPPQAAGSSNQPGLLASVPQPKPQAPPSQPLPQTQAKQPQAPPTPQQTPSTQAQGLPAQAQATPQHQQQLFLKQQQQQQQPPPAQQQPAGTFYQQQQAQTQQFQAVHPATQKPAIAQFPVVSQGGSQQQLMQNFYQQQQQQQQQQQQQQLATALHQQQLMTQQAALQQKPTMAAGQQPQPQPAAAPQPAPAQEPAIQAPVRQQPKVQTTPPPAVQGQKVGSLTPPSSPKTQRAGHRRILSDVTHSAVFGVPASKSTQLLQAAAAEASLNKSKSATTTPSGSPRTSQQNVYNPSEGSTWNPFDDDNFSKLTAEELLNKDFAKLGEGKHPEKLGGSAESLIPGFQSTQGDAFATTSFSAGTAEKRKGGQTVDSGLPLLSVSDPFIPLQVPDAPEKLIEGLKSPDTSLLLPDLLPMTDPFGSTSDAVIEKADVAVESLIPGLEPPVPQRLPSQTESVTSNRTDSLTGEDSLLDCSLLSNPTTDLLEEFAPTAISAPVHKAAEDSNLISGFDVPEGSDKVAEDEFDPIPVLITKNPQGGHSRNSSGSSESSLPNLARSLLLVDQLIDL

First: COc1cc2[nH]c([C@H](N)C3CCCC3)nc2cc1-c1ccncc1 [Example 82, (R)-cyclopentyl(6-methoxy-5-(pyridin-4-yl)-1H-benzo[d]imidazol-2-yl)methanamine]
Second: COc1cc2[nH]c(C(N)CC3CCCC3)nc2cc1-c1cnco1 (stereo not drawn) [Example 71, 2-cyclopentyl-1-(6-methoxy-5-(oxazol-5-yl)-1H-benzo[d]imidazol-2-yl)ethanamine]
The IC50 of the first is 26-fold higher: 1800 nM for the first, 70 nM for the second.

First: CCn1c([C@H](N)CC(C)C)nc2ccc(-c3ccncc3)cc21 [Example 33, (R)-1-(1-ethyl-6-(pyridin-4-yl)-1H-benzo[d]imidazol-2-yl)-3-methylbutan-1-amine]
Second: CC(C)C[C@@H](N)c1nc2ccc(-c3ccncc3)cc2n1CC(F)(F)F [Example 37, (R)-3-methyl-1-(6-(pyridin-4-yl)-1-(2,2,2-trifluoroethyl)-1H-benzo[d]imidazol-2-yl)butan-1-amine]
The IC50 of the first is 5.7-fold higher: 108 nM for the first, 19 nM for the second. The second is the more potent here.

Going from `CN[C@H](CC(C)C)c1nc2cc(-c3ccnc(NC(C)=O)c3)ccc2[nH]1` [Example 63, (R)-N-(4-(2-(3-methyl-1-(methylamino)butyl)-1H-benzo[d]imidazol-5-yl)pyridin-2-yl)acetamide] to `CN[C@H](CC(C)C)c1nc2cc(-c3ccnc(N(C)C)c3)ccc2[nH]1` [Example 75, (R)-N,N-dimethyl-4-(2-(3-methyl-1-(methylamino)butyl)-1H-benzo[d]imidazol-5-yl) pyridin-2-amine], the IC50 rises from 14 nM to 244 nM (17-fold).

`CC(C)N1CC(c2nc3ccc(-c4ccncc4)cc3[nH]2)CC1=O` (stereo not drawn) [Example 51, 1-isopropyl-4-(6-(pyridin-4-yl)-1H-benzo[d]imidazol-2-yl)pyrrolidin-2-one] was tested, and the IC50 was 783 nM.

same assay, conditions: ATP 22 μM; GST-Xa-hAAK1 3.5 nM; room temperature for 3 hours; Caliper LabChip 3000; read-out: AAK1 IC50

Compared with `NC(CCC(F)(F)F)c1nc2cc(-c3ccncc3)ccc2o1` (stereo not drawn) [Example 93, 4,4,4-trifluoro-1-(5-(pyridin-4-yl)benzo[d]oxazol-2-yl)butan-1-amine], `c1cc(-c2ccc3oc(CC4CCCC4)nc3c2)ccn1` [Example 90, 2-(cyclopentylmethyl)-5-(pyridin-4-yl)benzo[d]oxazole] is 6-fold higher in IC50: 136 nM for the first, 818 nM for the second. The first is the more potent here.

Compared with `CC(C)C[C@@H](N)c1nc2cc(-c3ncnc4[nH]ccc34)ccc2[nH]1` [Example 8, (R)-1-(5-(7H-pyrrolo[2,3-d]pyrimidin-4-yl)-1H-benzo[d]imidazol-2-yl)-3-methylbutan-1-amine], `CC(C)C[C@@H](N)c1nc2cc(-c3ccnc(C#N)c3)ccc2[nH]1` [Example 15, (R)-4-(2-(1-amino-3-methylbutyl)-1H-benzo[d]imidazol-5-yl)picolinonitrile] is 72-fold higher in IC50: 4 nM for the first, 289 nM for the second.

Going from `COc1cc(-c2ccc3[nH]c(CCC(C)C)nc3c2)ccn1` [Example 57, 2-isopentyl-5-(2-methoxypyridin-4-yl)-1H-benzo[d]imidazole] to `COc1cc(-c2ccc3[nH]c([C@H](N)CC(C)C)nc3c2)c(F)cn1` [Example 20, (R)-1-(5-(5-fluoro-2-methoxypyridin-4-yl)-1H-benzo[d]imidazol-2-yl)-3-methylbutan-1-amine], the IC50 falls from 1550 nM to 489 nM (3.2-fold).

Going from `CN[C@H](CC(C)C)c1nc2ccc(-c3cnco3)cc2[nH]1` [Example 101, (R)-N,3-dimethyl-1-(6-(oxazol-5-yl)-1H-benzo[d]imidazol-2-yl) butan-1-amine] to `CCn1c([C@H](N)CC(C)C)nc2ccc(-c3cnco3)cc21` [Example 32, (R)-1-(1-ethyl-6-(oxazol-5-yl)-1H-benzo[d]imidazol-2-yl)-3-methylbutan-1-amine], the IC50 rises from 34 nM to 450 nM (13-fold). The first is the more potent here.

Going from `CCCn1c([C@H](N)CC(C)C)nc2ccc(-c3ccncc3)cc21` [Example 43, (R)-3-methyl-1-(1-propyl-6-(pyridin-4-yl)-1H-benzo[d]imidazol-2-yl)butan-1-amine] to `CC(C)C[C@@H](N)c1nc2cc(-c3ccncc3)ccc2s1` [Example 96, (R)-3-methyl-1-(5-(pyridin-4-yl)benzo[d]thiazol-2-yl)butan-1-amine], the IC50 rises from 103 nM to 797 nM (7.7-fold). The first is the more potent here.

With `CC(C)CC(C)c1nc2cc(-c3ccncc3)ccc2[nH]1` (stereo not drawn) [Example 58, 2-(4-methylpentan-2-yl)-5-(pyridin-4-yl)-1H-benzo[d]imidazole] the IC50 was 40 nM.
